The values below come from ChEMBL document CHEMBL3272277, “Stereocontrolled glycosidation of daunomycinone. Synthesis and biological evaluation of 6-hydroxy-L-arabino analogues of antitumor anthracyclines” (J Med Chem, 1976).

Structures are written as SMILES. Values after ≈ are worked out from the molar mass of the structure shown.

The subject of series [1] is Sarcoma-180. As to the kind of experiment: Antitumor activity against mouse Sarcoma 180 cells allografted in mouse assessed as average survival time at 2 mg/kg, ip on day 1 post challenge relative to untreated control. It is filed as functional. Conditions: route intraperitoneal.
Series [2] deals with HeLa. As to the kind of experiment: Cytotoxicity against human HeLa cells assessed as cloning efficiency after 8 hrs. It counts as functional. The following applies: read-out: ID50 (the source's name).
The nature of series [3]: Antiproliferative activity against MEF after 72 hrs. It counts as cell-based. Conditions: mouse, MEF cells; read-out: ID50.
The test system of series [4] is MEF. As to the kind of experiment: Inhibition of Murine sarcoma virus (Moloney) foci formation in MEF after 72 hrs. It counts as functional. Conditions: Mus musculus, read-out: ID50 (the source's name).
The test system of series [5] is Mus musculus. As to the kind of experiment: Toxicity in mouse allografted with mouse Sarcoma 180 cells assessed as mortality at >5 mg/kg, ip on day 1 post challenge. The following applies: in vivo. It is filed as organism-based.
In series [6] the test system is Sarcoma-180. In words: Antitumor activity against mouse Sarcoma 180 cells allografted in mouse assessed as average survival time at 10 mg/kg, ip on day 1 post challenge relative to untreated control. It is filed as functional. The following applies: route intraperitoneal.
The test system of series [7] is Mus musculus. As to the kind of experiment: Toxicity in mouse allografted with mouse Sarcoma 180 cells assessed as mortality at 10 mg/kg, ip on day 1 post challenge. It counts as organism-based. More on the design: dose 10 mg/kg, route intraperitoneal. Conditions: in vivo.
In series [8] the test system is Mus musculus. In words: Toxicity in mouse allografted with mouse Sarcoma 180 cells assessed as mortality at 2 mg/kg, ip on day 1 post challenge. Conditions: in vivo. More on the design: dose 2 mg/kg, route intraperitoneal. It is filed as organism-based.

As for `COc1cccc2c1C(=O)c1c(O)c3c(c(O)c1C2=O)C[C@@](O)(C(C)=O)C[C@@H]3O[C@H]1C[C@H](N)[C@H](O)[C@H](C)O1` [DAUNORUBICIN], the T/C (as a rule, the ratio of treated to control) in series [1] was 192%. Moreover, the IC50 came to 0.013 µg/mL (≈ 0.0246 µM) in series [2] and 0.0055 µg/mL (≈ 0.0104 µM) in series [4]. Also, in series [3], the GI50 at 72 h worked out at 0.009 µg/mL (≈ 0.0171 µM).

On to `COc1cccc2c1C(=O)c1c(O)c3c(c(O)c1C2=O)C[C@@](O)(C(C)=O)C[C@@H]3O[C@H]1C[C@H](N)[C@@H](O)[C@H](C)O1`, for which the Activity entry in series [5] is listed as “Toxic”.

As for `COc1cccc2c1C(=O)c1c(O)c3c(c(O)c1C2=O)C[C@@](O)(C(=O)CO)C[C@@H]3O[C@H]1C[C@H](N)[C@H](O)[C@H](C)O1.Cl` [DOXORUBICIN HYDROCHLORIDE], the T/C in series [1] came out at 210%. Besides, the IC50 in series [2] is 0.11 µg/mL; in series [4], 0.0025 µg/mL. In series [3], the GI50 at 72 h amounted to 0.007 µg/mL.

For the compound `COc1cccc2c1C(=O)c1c(O)c3c(c(O)c1C2=O)C[C@@](O)(C(=O)CO)C[C@@H]3O[C@H]1C[C@H](N)[C@@H](O)[C@H](CO)O1`, the T/C in series [6] was 162%. Also, the Activity entry in series [7] and in series [8] was “Non-toxic” in each case. In addition, the IC50 in series [2] came out at 1 µg/mL (≈ 1.79 µM); in series [4], 0.025 µg/mL (≈ 0.0447 µM). For the same compound, in series [3], the GI50 at 72 h is 0.05 µg/mL (≈ 0.0894 µM).

As for `COc1cccc2c1C(=O)c1c(O)c3c(c(O)c1C2=O)C[C@@](O)(C(=O)CO)C[C@@H]3O[C@H]1C[C@H](N)[C@@H](O)[C@H](C)O1` [EPIRUBICIN], in series [5], the Activity result was “Toxic”.

With `COc1cccc2c1C(=O)c1c(O)c3c(c(O)c1C2=O)C[C@@](O)(C(C)=O)C[C@@H]3O[C@H]1C[C@H](N)[C@@H](O)[C@H](CO)O1.Cl`, the T/C in series [6] came to 167%. Moreover, the Activity entry in series [7] and in series [8] was “Non-toxic” throughout. In addition, the IC50 in series [2] was above 10 µg/mL; in series [4], 0.1 µg/mL. Also, in series [3], the GI50 at 72 h is 0.256 µg/mL.
